According to ChEMBL document CHEMBL4011590, “Structure-activity relationship studies on 3,5-dinitrophenyl tetrazoles as antitubercular agents” (Eur J Med Chem, 2017):
pIC50: −log10 of the molar value.

Experiments:
Klebsiella pneumoniae [1] = test: Antibacterial activity against extended spectrum beta-lactamase producing Klebsiella pneumoniae HK14368/08 after 24 hrs by broth microdilution method; format: functional; conditions: HK14368/08, 24 h
Candida albicans [2] = test: Antifungal activity against Candida albicans ATCC 44859 after 48 hrs by broth microdilution method; format: functional; conditions: ATCC 44859, 48 h
Mycobacterium avium [3] = test: Antimycobacterial activity against Mycobacterium avium CNCTC My 330/80 after 21 days by micromethod; format: functional; conditions: CNCTC My 330/80, 504 h
Enterococcus sp. [4] = test: Antibacterial activity against Enterococcus sp. HK14365/08 after 24 hrs by broth microdilution method; format: functional; conditions: HK14365/08, 24 h
Trichosporon asahii [5] = test: Antifungal activity against Trichosporon asahii 1188 after 48 hrs by broth microdilution method; format: functional; conditions: Trichosporon asahii, 1188, 48 h
Klebsiella pneumoniae [6] = test: Antibacterial activity against Klebsiella pneumoniae HK11750/08 after 48 hrs by broth microdilution method; format: functional; conditions: HK11750/08, 48 h
Candida albicans [7] = test: Antifungal activity against Candida albicans ATCC 44859 after 24 hrs by broth microdilution method; format: functional; conditions: ATCC 44859, 24 h
Candida tropicalis [8] = test: Antifungal activity against Candida tropicalis 156 after 48 hrs by broth microdilution method; format: functional; conditions: Candida tropicalis, 156, 48 h
[9] = tested on: Trichophyton mentagrophytes; test: Antifungal activity against Trichophyton mentagrophytes 445 after 72 hrs by broth microdilution method; format: functional; conditions: Trichophyton mentagrophytes, 445, 72 h
Aspergillus fumigatus [10] = test: Antifungal activity against Aspergillus fumigatus 231 after 24 hrs by broth microdilution method; format: functional; conditions: Aspergillus fumigatus, 231, 24 h
Mycobacterium kansasii [11] = test: Antimycobacterial activity against Mycobacterium kansasii isolate 6509/96 after 21 days by micromethod; format: functional; conditions: isolate 6509/96, 504 h
[12] = tested on: Mycobacterium tuberculosis; test: Antimycobacterial activity against Mycobacterium tuberculosis H37Rv CNCTC My 331/88 after 21 days by micromethod; format: functional; conditions: H37Rv CNCTC My 331/88, 504 h
Lichtheimia corymbifera [13] = test: Antifungal activity against Absidia corymbifera 272 after 24 hrs by broth microdilution method; format: functional; conditions: Lichtheimia corymbifera, 272, 24 h
Pseudomonas aeruginosa [14] = test: Antibacterial activity against Pseudomonas aeruginosa ATCC 9027 after 48 hrs by broth microdilution method; format: functional; conditions: ATCC 9027, 48 h
Staphylococcus aureus [15] = test: Antibacterial activity against Staphylococcus aureus ATCC 6538 after 24 hrs by broth microdilution method; format: functional; conditions: ATCC 6538, 24 h
Staphylococcus aureus [16] = test: Antibacterial activity against Staphylococcus aureus ATCC 6538 after 48 hrs by broth microdilution method; format: functional; conditions: ATCC 6538, 48 h
[17] = tested on: Staphylococcus epidermidis; test: Antibacterial activity against Staphylococcus epidermidis HK6966/08 after 24 hrs by broth microdilution method; format: functional; conditions: HK6966/08, 24 h
Nakaseomyces glabratus [18] = test: Antifungal activity against Candida glabrata 20/I after 48 hrs by broth microdilution method; format: functional
Mycobacterium kansasii [19] = test: Antimycobacterial activity against Mycobacterium kansasii isolate 6509/96 after 14 days by micromethod; format: functional; conditions: isolate 6509/96, 336 h
Nakaseomyces glabratus [20] = test: Antifungal activity against Candida glabrata 20/I after 24 hrs by broth microdilution method; format: functional
[21] = tested on: Trichophyton mentagrophytes; test: Antifungal activity against Trichophyton mentagrophytes 445 after 120 hrs by broth microdilution method; format: functional; conditions: Trichophyton mentagrophytes, 445, 120 h
Candida tropicalis [22] = test: Antifungal activity against Candida tropicalis 156 after 24 hrs by broth microdilution method; format: functional; conditions: Candida tropicalis, 156, 24 h
Aspergillus fumigatus [23] = test: Antifungal activity against Aspergillus fumigatus 231 after 48 hrs by broth microdilution method; format: functional; conditions: Aspergillus fumigatus, 231, 48 h
[24] = tested on: Mycobacterium tuberculosis; test: Antimycobacterial activity against Mycobacterium tuberculosis H37Rv CNCTC My 331/88 after 14 days by micromethod; format: functional; conditions: H37Rv CNCTC My 331/88, 336 h
Mycobacterium avium [25] = test: Antimycobacterial activity against Mycobacterium avium CNCTC My 330/80 after 14 days by micromethod; format: functional; conditions: CNCTC My 330/80, 336 h
Pseudomonas aeruginosa [26] = test: Antibacterial activity against Pseudomonas aeruginosa ATCC 9027 after 24 hrs by broth microdilution method; format: functional; conditions: ATCC 9027, 24 h
Staphylococcus aureus [27] = test: Antibacterial activity against methicillin-resistant Staphylococcus aureus HK5996/08 after 24 hrs by broth microdilution method; format: functional; conditions: HK5996/08, 24 h
Trichosporon asahii [28] = test: Antifungal activity against Trichosporon asahii 1188 after 24 hrs by broth microdilution method; format: functional; conditions: Trichosporon asahii, 1188, 24 h
Escherichia coli [29] = test: Antibacterial activity against Escherichia coli ATCC 8739 after 48 hrs by broth microdilution method; format: functional; conditions: ATCC 8739, 48 h
Escherichia coli [30] = test: Antibacterial activity against Escherichia coli ATCC 8739 after 24 hrs by broth microdilution method; format: functional; conditions: ATCC 8739, 24 h
Mycobacterium kansasii [31] = test: Antimycobacterial activity against Mycobacterium kansasii CNCTC My 235/80 after 14 days by micromethod; format: functional; conditions: CNCTC My 235/80, 336 h
Klebsiella pneumoniae [32] = test: Antibacterial activity against Klebsiella pneumoniae HK11750/08 after 24 hrs by broth microdilution method; format: functional; conditions: HK11750/08, 24 h
Klebsiella pneumoniae [33] = test: Antibacterial activity against extended spectrum beta-lactamase producing Klebsiella pneumoniae HK14368/08 after 48 hrs by broth microdilution method; format: functional; conditions: HK14368/08, 48 h
Lichtheimia corymbifera [34] = test: Antifungal activity against Absidia corymbifera 272 after 48 hrs by broth microdilution method; format: functional; conditions: Lichtheimia corymbifera, 272, 48 h
Mycobacterium kansasii [35] = test: Antimycobacterial activity against Mycobacterium kansasii CNCTC My 235/80 after 21 days by micromethod; format: functional; conditions: CNCTC My 235/80, 504 h
Staphylococcus aureus [36] = test: Antibacterial activity against methicillin-resistant Staphylococcus aureus HK5996/08 after 48 hrs by broth microdilution method; format: functional; conditions: HK5996/08, 48 h
Pichia kudriavzevii [37] = test: Antifungal activity against Candida krusei E28 after 24 hrs by broth microdilution method; format: functional; conditions: E28, 24 h
Mycobacterium kansasii [38] = test: Antimycobacterial activity against Mycobacterium kansasii isolate 6509/96 after 7 days by micromethod; format: functional; conditions: isolate 6509/96, 168 h
CHO-K1 = test: Cytotoxicity against CHOK1 cells after 24 hrs by MTT assay; format: cell-based; conditions: Cricetulus griseus, CHO-K1, 24 h
Mycobacterium kansasii [39] = test: Antimycobacterial activity against Mycobacterium kansasii CNCTC My 235/80 after 7 days by micromethod; format: functional; conditions: CNCTC My 235/80, 168 h
[40] = tested on: Staphylococcus epidermidis; test: Antibacterial activity against Staphylococcus epidermidis HK6966/08 after 48 hrs by broth microdilution method; format: functional; conditions: HK6966/08, 48 h
Pichia kudriavzevii [41] = test: Antifungal activity against Candida krusei E28 after 48 hrs by broth microdilution method; format: functional; conditions: E28, 48 h
Enterococcus sp. [42] = test: Antibacterial activity against Enterococcus sp. HK14365/08 after 48 hrs by broth microdilution method; format: functional; conditions: HK14365/08, 48 h

CCCCCCCCCCCCn1nnc(-c2cc([N+](=O)[O-])cc([N+](=O)[O-])c2)n1
1 µM: MIC99 [24]
8 µM: MIC99 (Mycobacterium avium [25]) | MIC99 (Mycobacterium kansasii [31]) | MIC99 (Mycobacterium kansasii [35])
> 250 µM: MIC (Klebsiella pneumoniae [1]) | MIC (Candida albicans [2]) | MIC (Enterococcus sp. [4]) | MIC (Trichosporon asahii [5]) | MIC (Klebsiella pneumoniae [6]) | MIC (Candida albicans [7]) | MIC (Candida tropicalis [8]) | MIC [9] | MIC (Aspergillus fumigatus [10]) | MIC (Lichtheimia corymbifera [13]) | MIC (Pseudomonas aeruginosa [14]) | MIC (Staphylococcus aureus [15]) | MIC (Staphylococcus aureus [16]) | MIC [17] | MIC (Nakaseomyces glabratus [18]) | MIC (Nakaseomyces glabratus [20]) | MIC [21] | MIC (Candida tropicalis [22]) | MIC (Aspergillus fumigatus [23]) | MIC (Pseudomonas aeruginosa [26]) | MIC (Staphylococcus aureus [27]) | MIC (Trichosporon asahii [28]) | MIC (Escherichia coli [29]) | MIC (Escherichia coli [30]) | MIC (Klebsiella pneumoniae [32]) | MIC (Klebsiella pneumoniae [33]) | MIC (Lichtheimia corymbifera [34]) | MIC (Staphylococcus aureus [36]) | MIC (Pichia kudriavzevii [37]) | MIC [40] | MIC (Pichia kudriavzevii [41]) | MIC (Enterococcus sp. [42])
16 µM: MIC99 (Mycobacterium avium [3])
4 µM: MIC99 (Mycobacterium kansasii [11]) | MIC99 (Mycobacterium kansasii [19]) | MIC99 (Mycobacterium kansasii [39])
2 µM: MIC99 [12] | MIC99 (Mycobacterium kansasii [38])
< 3.70: pIC50 (CHO-K1)

COc1cccc(-n2nnnc2SCn2nnc(-c3cc([N+](=O)[O-])cc([N+](=O)[O-])c3)n2)c1
> 500 µM: MIC (Candida albicans [2]) | MIC (Trichosporon asahii [5]) | MIC (Candida albicans [7]) | MIC (Candida tropicalis [8]) | MIC [9] | MIC (Aspergillus fumigatus [10]) | MIC (Lichtheimia corymbifera [13]) | MIC (Nakaseomyces glabratus [18]) | MIC (Nakaseomyces glabratus [20]) | MIC [21] | MIC (Candida tropicalis [22]) | MIC (Aspergillus fumigatus [23]) | MIC (Trichosporon asahii [28]) | MIC (Lichtheimia corymbifera [34]) | MIC (Pichia kudriavzevii [37]) | MIC (Pichia kudriavzevii [41])
1 µM: MIC99 (Mycobacterium kansasii [11]) | MIC99 (Mycobacterium kansasii [19]) | MIC99 (Mycobacterium kansasii [31]) | MIC99 (Mycobacterium kansasii [39])
0.03 µM: MIC99 [12] | MIC99 [24]
16 µM: MIC99 (Mycobacterium avium [3])
8 µM: MIC99 (Mycobacterium avium [25])
0.5 µM: MIC99 (Mycobacterium kansasii [38])
2 µM: MIC99 (Mycobacterium kansasii [35])
3.87: pIC50 (CHO-K1)
> 125 µM: MIC (Klebsiella pneumoniae [1]) | MIC (Enterococcus sp. [4]) | MIC (Klebsiella pneumoniae [6]) | MIC (Pseudomonas aeruginosa [14]) | MIC (Staphylococcus aureus [15]) | MIC (Staphylococcus aureus [16]) | MIC [17] | MIC (Pseudomonas aeruginosa [26]) | MIC (Staphylococcus aureus [27]) | MIC (Escherichia coli [29]) | MIC (Escherichia coli [30]) | MIC (Klebsiella pneumoniae [32]) | MIC (Klebsiella pneumoniae [33]) | MIC (Staphylococcus aureus [36]) | MIC [40] | MIC (Enterococcus sp. [42])

O=[N+]([O-])c1cc(-c2nnn(Cc3ccc(Cl)cc3)n2)cc([N+](=O)[O-])c1
3.77: pIC50 (CHO-K1)
0.25 µM: MIC99 [12] | MIC99 [24] | MIC99 (Mycobacterium kansasii [39])
2 µM: MIC99 (Mycobacterium kansasii [11]) | MIC99 (Mycobacterium kansasii [35])
500 µM: MIC (Trichosporon asahii [5]) | MIC (Trichosporon asahii [28])
> 500 µM: MIC (Klebsiella pneumoniae [1]) | MIC (Candida albicans [2]) | MIC (Enterococcus sp. [4]) | MIC (Klebsiella pneumoniae [6]) | MIC (Candida albicans [7]) | MIC [9] | MIC (Aspergillus fumigatus [10]) | MIC (Lichtheimia corymbifera [13]) | MIC (Pseudomonas aeruginosa [14]) | MIC (Nakaseomyces glabratus [18]) | MIC (Nakaseomyces glabratus [20]) | MIC [21] | MIC (Aspergillus fumigatus [23]) | MIC (Pseudomonas aeruginosa [26]) | MIC (Staphylococcus aureus [27]) | MIC (Escherichia coli [29]) | MIC (Escherichia coli [30]) | MIC (Klebsiella pneumoniae [32]) | MIC (Klebsiella pneumoniae [33]) | MIC (Lichtheimia corymbifera [34]) | MIC (Staphylococcus aureus [36]) | MIC (Pichia kudriavzevii [37]) | MIC (Pichia kudriavzevii [41]) | MIC (Enterococcus sp. [42])
250 µM: MIC (Candida tropicalis [8]) | MIC (Candida tropicalis [22])
31.2 µM: MIC (Staphylococcus aureus [15]) | MIC (Staphylococcus aureus [16])
1 µM: MIC99 (Mycobacterium kansasii [19]) | MIC99 (Mycobacterium kansasii [31])
0.5 µM: MIC99 (Mycobacterium kansasii [38])
8 µM: MIC99 (Mycobacterium avium [3]) | MIC99 (Mycobacterium avium [25])
15.6 µM: MIC [17] | MIC [40]
